Measured values: patent US9980949B2, “SNS-595 and methods of using the same” (Sunesis Pharmaceuticals, Inc., priority 2004, dated 2018)

Experiments:
HCT116 cells = test: Combination studies with SNS-595, MTT assay, median-effect Combination Index; assay type: cell-based; settings: combination with SNS-595 at constant ratio, 72 hours, <0.90 synergistic, 0.90-1.10 additive, >1.10 antagonistic
Procedure: The final DMSO concentration was 1% in the assay plate. The treated cells were incubated for 72 hours at 37° C., 5% CO2 before adding 20 μl/well 3-[4,5-dimethylthiazol-2-yl]-2,5-diphenyltetrazolium bromide (MTT) for 1 hour followed by 100 μl/well N,N-dimethyl formamide/SDS lysis buffer for at least 16 hours. The plates were read for absorbance at a wavelength of 595 nm. The data was worked up using the median-effect method that quantifies the interaction using a Combination Index (calculated using the software for dose effect analysis, Calcusyn V2(Biosoft). A combination is said to be additive if it yields a Combination Index of 0.90-1.10. A combination is said to be synergistic if it yields a Combination Index less than 0.90 and a combination is said to be antagonistic if it yields a Combination Index of more than 1.10. All Combination Index calculations were at a Fa value of 0.5, the point where 50% of the cells were dead. See Table 2.

DNA-PK null cell line = test: Inhibition of cell growth (MTT) by SNS-595 in DNA-PK null cell line; assay type: cell-based; settings: DNA-PK null cell line instead of HCT-116 cells
Procedure: (§1) HCT-116 colon cancer cells were plated at a density of approximately […] with 100 μl/well of RPMI-1640 media (supplemented with 10% fetal bovine serum, 1% antibiotic/antimycotic, and 1.5% sodium bicarbonate) in a 96-well clear tissue-culture treated plate for 24 hours at 37° C., 5% CO2. Some cells were treated with 100 nM wortmannin for 8-16 hours. SNS-595 was then added as a serial dilution, and cells were incubated for 72 hours at 37° C., 5% CO2. MTT (20 μl/well of a 5 mg/ml stock solution) was added for 1 hour, followed by N,N-dimethyl formamide/SDS lysis buffer for at least 16 hours. Absorbance was monitored at 595 nm and data were fit by nonlinear regression to determine the inhibition of cell growth (IC50) by SNS-595 in the absence and presence of wortmannin. […] Similar results were seen when DNA-PK null cell line (approximately a 10 fold sensitization) was used instead of HCT-116 cells.

[1] = tested on: cells where G2 arrest is abrogated; test: Cytotoxicity in cells where G2 arrest is abrogated by caffeine; assay type: cell-based; settings: caffeine inhibits both ATM and ATR
Source text: As shown by FIG. 1, ATM, ATR, and DNA-PK are three central DNA sensors/effectors that depending on the level of DNA damage that is detected within an individual cell, direct the cell into one of several outcomes including DNA repair, G2 arrest or apoptosis.

various cells = test: Cellular potency (EC50) in various cells; assay type: cell-based
Source text: (§2) SNS-595 is a cell cycle inhibitor and arrests cells at the G2 interface. Initially, the activity of SNS-595 was believed due to topoisomerase II inhibition.

[2] = Solubility in acidic compositions; assay type: physicochemical; settings: acidic compositions (<pH 4)
Procedure: An illustrative example of a suitable composition comprises: 10 mg SNS-595 per mL of aqueous solution of 4.5% sorbitol that is adjusted to pH 2.5 with methanesulfonic acid. One protocol for making such a solution includes the following for making a 100 mg/10 mL presentation: 100 mg of SNS-595 and 450 mg D-sorbitol are added to distilled water; the volume is brought up to a volume of 10 mL; and the pH of the resulting solution is adjusted to 2.5 with methanesulfonic acid. The resulting composition is also suitable for lyophilization. The lyophilized form is then reconstituted with sterile water to the appropriate concentration prior to use.

DNA-PK pathway [3] = test: Dose-dependent responses of DNA-PK pathway members in HCT 116 cells (FIG. 2); assay type: cell-based; settings: H2AX, c-Abl, p53, p73, p21, caspase-9, caspase-3
Source text: (§3) This damage impedes the ability of the cell to synthesize DNA and lengthens the time the cell spends in the S phase. […] When the DNA damage is sufficiently severe such that the double-strand breaks cannot be repaired through non-homologous end joining (NHEJ), the cell rapidly enters apoptosis. Some cells are able to reach the G2 phase but are subsequently arrested (mediated by cdc2/cyclin B) because the cells are too damaged to enter into the M phase and also eventually becomes apoptotic.

[4] = tested on: HCT-116 colon cancer cells; test: Inhibition of cell growth (MTT) by SNS-595 in absence and presence of wortmannin; assay type: cell-based; settings: HCT-116 cells, 100 nM wortmannin for 8-16 hours, 72 hours
Procedure: as §1

[5] = Pharmacokinetics of SNS-595 in cancer patients; assay type: in vivo, human; settings: for C0: human, intravenous
Procedure: SNS-595 was administered to enrolled patients for up to six cycles. A cycle is defined as a three-week period, with SNS-595 administered on the first day of each cycle (day 0), followed by at least 21 days of observation. SNS-595 was administered to cohorts of at least 3 patients and dose escalation occurred by sequential cohort.

DNA-PK pathway [6] = test: Pharmacodynamic study: DNA-PK pathway members in HCT116 xenograft tumors (Western blots); assay type: in vivo, Nu/nu mice; settings: IV bolus 20 or 40 mg/kg, 1-24 hours post dose, FIG. 3
Procedure: Nu/nu mice (ca. 25 grams) were injected with HCT116 cells (which were obtained from the ATCC) in the hind flank at 5 million cells with 50% matrigel (Becton-Dickinson). Tumors were allowed to grow to 400 mm^3. Xenograft bearing animals were then given either an IV bolus injection of SNS-595 (20 or 40 mg/kg) in the tail vein or a saline vehicle. At prescribed time points (1, 2, 4, 8, 16, and 24 hours post dose), animals were anesthetized with CO2, blood was taken via terminal cardiac puncture, and animals were sacrificed. Tumors were excised, pulverized using liquid nitrogen-cooled mortar and pestle, and flash-frozen in liquid nitrogen. Tumor lysates were made from pulverized samples by addition of lysis buffer. The protein concentrations of the DNA-PK pathway members were determined by Western blots. Approximately 25 micrograms of protein was loaded per lane on an SDS-PAGE gel. Proteins were separated by gel electrophoresis, blotted onto nitrocellulose membranes, and detected using the following antibodies: H2AX, phosphorylated at […] (Cell Signaling, catalog no. 2577L); p53, phosphorylated at S15 (Cell Signaling, catalog no. 9284S); p53, phosphorylated at S37 (Cell Signaling, catalog no. 9289S); p21 (Cell Signaling, catalog no. 2946); cdc2, phosphorylated at Y15 (Calbiochem, catalog no. 219437); cyclin B (Santa Cruz, catalog no. sc-594 (H-20)); p73, phosphorylated at […] […]

non-proliferating cells = assay type: cell-based
Source text: as §3, with “Treatment with SNS-595 results in an increase in the number of double-strand DNA breaks that form during the S phase. This” for “This”

[7] = tested on: 2-deoxyglucose treated cells; test: Activity in cells with topoisomerase II levels modulated by 2-deoxyglucose; assay type: cell-based; settings: topoisomerase II levels modulated using 2-deoxyglucose
Source text: as §2

[8] = tested on: stable variant of HCT-116 cells; test: Sensitivity of a stable SNS-595-resistant variant of HCT-116 cells; assay type: cell-based; settings: stable variant with induced resistance
Source text: Consistent with this mechanism, cells with induced resistance to SNS-595 also have alterations in the DNA-PK pathway. […] Conversely, decreased levels of DNA-PK or its activity (e.g. in the presence of an inhibitor) is associated with an increased sensitivity to SNS-595.

topoisomerase II = test: Catalytic inhibition of topoisomerase II (decatenation and relaxation of supercoiled DNA); assay type: biochemical; settings: inhibits decatenation and relaxation of supercoiled DNA, no formation of cleavable complexes
Source text: as §2

N.N.O=C([O-])C1(C(=O)[O-])CCC1.[Pt+2] [Carboplatin]
Combination Index @ Fa = 0.5 (HCT116 cells): 0.54

N.N.[Cl][Pt][Cl] [Cisplatin]
Combination Index @ Fa = 0.5 (HCT116 cells): 0.54

CC(=O)O[C@@]12CO[C@@H]1C[C@H](O)[C@@]1(C)C(=O)[C@H](O)C3=C(C)[C@@H](OC(=O)[C@H](O)[C@@H](NC(=O)OC(C)(C)C)c4ccccc4)C[C@@](O)([C@@H](OC(=O)c4ccccc4)[C@H]21)C3(C)C [Docetaxel]
Combination Index @ Fa = 0.5 (HCT116 cells): 2.00

COC1=C2C[C@@H](C)C[C@H](OC)[C@H](O)[C@@H](C)/C=C(\C)[C@H](OC(N)=O)[C@@H](OC)/C=C\C=C(/C)C(=O)NC(=CC1=O)C2=O [Geldanamycin]
Combination Index @ Fa = 0.5 (HCT116 cells): 0.47

Cn1cnc2c(NCc3ccccc3)nc(NCCO)nc21 [Olomucine]
Combination Index @ Fa = 0.5 (HCT116 cells): 1.00

CC[C@H](CO)Nc1nc(NCc2ccccc2)c2ncn(C(C)C)c2n1 [Roscovitine]
Combination Index @ Fa = 0.5 (HCT116 cells): 1.10

CN[C@H]1CN(c2ccc3c(=O)c(C(=O)O)cn(-c4nccs4)c3n2)C[C@@H]1OC [SNS-595, (+)-1,4-dihydro-7-[(3S,4S)-3-methoxy-4-(methylamino)-1-pyrrolidinyl]-4-oxo-1-(2-thiazoyl)-1,8-naphthyridine-3-carboxylic acid]
sensitization to SNS-595 (DNA-PK null cell line): ~10 fold | difference in EC50 values, caffeine-treated (G2 arrest abrogated) versus untreated cells [1]: essentially no difference in EC50 values | difference in potency, cellular EC50 versus biochemical inhibition of topoisomerase II (various cells): at least a ten-fold difference in increased potency | solubility [2]: increased solubility | activation of DNA-PK mediated repair and apoptotic cellular machinery (DNA-PK pathway [3]): activates, in a dose dependent manner | IC50 lower in the presence of wortmannin than in its absence [4]: 3-6 fold | relation of dose to AUC∞ ([5]; dose escalation by sequential cohort): linear with AUC∞ | C0 ([5]; 3 mg/m2, plasma, dose 3 mg/m^2): 153 ng/mL | C0 ([5]; 6 mg/m2, plasma, dose 6 mg/m^2): 377 ng/mL | C0 ([5]; 12 mg/m2, plasma, dose 12 mg/m^2): 2890 ng/mL | C0 ([5]; 24 mg/m2, plasma, dose 24 mg/m^2): 2920 ng/mL | C0 ([5]; 48 mg/m2, plasma, dose 48 mg/m^2): 1980 ng/mL | C0 ([5]; 60 mg/m2, plasma, dose 60 mg/m^2): 4800 ng/mL | AUCINF_obs ([5]; plasma, dose 3 mg/m^2): 1139.55 ng·h/mL | Cl_obs ([5]; plasma, dose 3 mg/m^2): 1.14 mL/min/kg | Cmax ([5]; plasma, dose 3 mg/m^2): 138.80 ng/mL | HL ([5]; plasma, dose 3 mg/m^2): 16.27 h | MRTINF_obs ([5]; plasma, dose 3 mg/m^2): 21.95 h | Vss_obs ([5]; plasma, dose 3 mg/m^2): 1.44 L/kg | Vz_obs ([5]; plasma, dose 3 mg/m^2): 1.55 L/kg | Cl_obs ([5]; plasma, dose 6 mg/m^2): 0.71 mL/min/kg | Cmax ([5]; plasma, dose 6 mg/m^2): 347.00 ng/mL | HL ([5]; plasma, dose 6 mg/m^2): 20.69 h | Vss_obs ([5]; plasma, dose 6 mg/m^2): 1.24 L/kg | Vz_obs ([5]; plasma, dose 6 mg/m^2): 1.28 L/kg | AUCINF_obs ([5]; plasma, dose 12 mg/m^2): 6329.15 ng·h/mL | Cl_obs ([5]; plasma, dose 12 mg/m^2): 0.76 mL/min/kg | Cmax ([5]; plasma, dose 12 mg/m^2): 2246.67 ng/mL | HL ([5]; plasma, dose 12 mg/m^2): 17.81 h | Vss_obs ([5]; plasma, dose 12 mg/m^2): 1.07 L/kg | Vz_obs ([5]; plasma, dose 12 mg/m^2): 1.17 L/kg | AUCINF_obs ([5]; plasma, dose 24 mg/m^2): 12655.32 ng·h/mL | AUClast ([5]; plasma, dose 24 mg/m^2): 11133.03 ng·h/mL | Cl_obs ([5]; plasma, dose 24 mg/m^2): 0.83 mL/min/kg | Cmax ([5]; plasma, dose 24 mg/m^2): 2703.33 ng/mL | HL ([5]; plasma, dose 24 mg/m^2): 16.14 h | Vss_obs ([5]; plasma, dose 24 mg/m^2): 1.06 L/kg | Vz_obs ([5]; plasma, dose 24 mg/m^2): 1.15 L/kg | AUCINF_obs ([5]; plasma, dose 48 mg/m^2): 27347.38 ng·h/mL | Cl_obs ([5]; plasma, dose 48 mg/m^2): 0.99 mL/min/kg | Cmax ([5]; plasma, dose 48 mg/m^2): 2868.00 ng/mL | HL ([5]; plasma, dose 48 mg/m^2): 21.32 h | Vss_obs ([5]; plasma, dose 48 mg/m^2): 1.48 L/kg | Vz_obs ([5]; plasma, dose 48 mg/m^2): 1.57 L/kg | Cl_obs ([5]; plasma, dose 60 mg/m^2): 0.83 mL/min/kg | Cmax ([5]; plasma, dose 60 mg/m^2): 4537.50 ng/mL | HL ([5]; plasma, dose 60 mg/m^2): 17.63 h | Vss_obs ([5]; plasma, dose 60 mg/m^2): 1.08 L/kg | Vz_obs ([5]; plasma, dose 60 mg/m^2): 1.20 L/kg | levels of DNA-PK pathway members in tumors upon treatment (DNA-PK pathway [6]): activated in tumors | lethality to non-proliferating cells (non-proliferating cells): non-lethal to non-proliferating cells | difference in activity between 2-deoxyglucose treated cells and untreated cells [7]: essentially no difference in activity | sensitivity of resistant HCT-116 variant relative to HCT-116 cells [8]: approximately ten fold less sensitive | IC50 (topoisomerase II): ~5 µM

COC[C@H]1OC(=O)c2coc3c2[C@@]1(C)C1=C(C3=O)[C@@H]2CCC(=O)[C@@]2(C)C[C@H]1OC(C)=O [Wortmannin]
Combination Index @ Fa = 0.5 (HCT116 cells): 0.42
